Measurements taken from US7265126B2, “Diaza-spiropiperidine derivatives” (Hoffmann-La Roche Inc., priority 2004, dated 2007).
“And” between values parts separate entries of the source, which are not always exact repeats. Equal entries are not always repeated. Where two headings read alike, the source gives them in different places.

Legend:
mGlyT-1b = target: T1, mGlyT-1b (Mus musculus, UniProt P28571); assay: Glycine uptake inhibition assay (mGlyT-1b); type: cell-based
T1 construct: host or cells: Flp-in-CHO
T1 sequence (P28571 1-651 isoform P28571-2): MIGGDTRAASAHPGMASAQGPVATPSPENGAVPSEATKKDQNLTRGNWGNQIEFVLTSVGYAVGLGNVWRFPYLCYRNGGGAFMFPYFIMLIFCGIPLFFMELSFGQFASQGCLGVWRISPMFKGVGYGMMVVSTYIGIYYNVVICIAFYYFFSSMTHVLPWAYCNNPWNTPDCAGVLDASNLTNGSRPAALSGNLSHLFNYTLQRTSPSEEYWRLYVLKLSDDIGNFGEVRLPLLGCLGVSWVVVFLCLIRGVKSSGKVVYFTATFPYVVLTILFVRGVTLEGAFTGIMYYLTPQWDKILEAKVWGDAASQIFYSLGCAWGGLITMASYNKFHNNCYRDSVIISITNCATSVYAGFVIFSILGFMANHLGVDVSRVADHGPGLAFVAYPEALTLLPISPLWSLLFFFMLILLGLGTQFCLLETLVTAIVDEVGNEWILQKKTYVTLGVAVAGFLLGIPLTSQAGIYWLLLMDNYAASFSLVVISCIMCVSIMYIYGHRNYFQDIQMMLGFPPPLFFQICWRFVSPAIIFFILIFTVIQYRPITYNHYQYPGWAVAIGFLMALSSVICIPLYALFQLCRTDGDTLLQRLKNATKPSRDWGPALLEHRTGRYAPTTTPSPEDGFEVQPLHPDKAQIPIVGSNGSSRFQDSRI
Description: DMEM complete medium: Nutrient mixture F-12 (Gibco Life-technologies), fetal bovine serum (FBS) 5%, (Gibco life technologies), Penicillin/Streptomycinl % (Gibco life technologies), Hygromycin 0.6 mg/ml (Gibco life technologies), Glutamine 1 mM Gibco life technologies)
Uptake buffer (UB): 150 mM NaCl, 10 mM Hepes-Tris, pH 7.4, 1 mM CaCl2, 2.5 mM KCl, 2.5 mM MgSO4, 10 mM (+) D-glucose.
Flp-in™-CHO (Invitrogen Cat no. R758-07)cells stably transfected with mGlyT1b cDNA.
Glycine Uptake Inhibition Assay (mGlyT-1b)

GlyT-1 = target: T2, GlyT-1 (Homo sapiens, UniProt P48067); assay: GlyT-1 inhibition, human; type: cell-based
T2 sequence (P48067 1-706): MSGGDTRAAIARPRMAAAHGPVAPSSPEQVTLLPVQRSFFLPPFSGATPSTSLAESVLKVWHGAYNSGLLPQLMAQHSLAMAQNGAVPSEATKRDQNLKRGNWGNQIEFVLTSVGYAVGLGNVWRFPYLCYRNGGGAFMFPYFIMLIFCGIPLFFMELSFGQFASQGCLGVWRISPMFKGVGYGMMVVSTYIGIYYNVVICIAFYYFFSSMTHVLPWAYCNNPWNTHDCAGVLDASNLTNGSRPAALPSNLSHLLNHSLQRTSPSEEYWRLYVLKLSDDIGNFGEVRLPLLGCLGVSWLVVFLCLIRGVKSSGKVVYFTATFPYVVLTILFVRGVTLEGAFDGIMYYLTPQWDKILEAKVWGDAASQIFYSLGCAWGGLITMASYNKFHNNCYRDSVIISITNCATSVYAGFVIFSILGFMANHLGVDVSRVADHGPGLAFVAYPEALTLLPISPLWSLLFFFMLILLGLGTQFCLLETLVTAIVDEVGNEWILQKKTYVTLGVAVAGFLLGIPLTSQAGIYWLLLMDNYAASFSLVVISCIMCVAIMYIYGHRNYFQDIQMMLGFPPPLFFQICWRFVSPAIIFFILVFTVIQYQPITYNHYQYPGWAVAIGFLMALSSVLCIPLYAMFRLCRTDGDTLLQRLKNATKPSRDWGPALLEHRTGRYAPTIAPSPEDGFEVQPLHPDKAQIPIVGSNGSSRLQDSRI
Description: On day 1 mammalian cells, (Flp-in™-CHO), transfected with mGlyT-1b cDNA , were plated at the density of 40,000 cells/well in complete F-12 medium, without hygromycin in 96-well culture plates. On day 2, the medium was aspirated and the cells were washed twice with uptake buffer (UB). The cells were then incubated for 20 min at 22° C. with either (i) no potential competitor, (ii) 10 mM non-radioactive glycine , (iii) a concentration of a potential inhibitor. […] A solution was then immediately added containing [^3H]-glycine 60 nM (11-16 Ci/mmol) and 25 µM non-radioactive glycine. The plates were incubated with gentle shaking and the reaction was stopped by aspiration of the mixture and washing (three times) with ice-cold US. The cells were lysed with scintillation liquid, shaken 3 hours and the radioactivity in the cells was coounted using a scintillation counter.

## O=C1NCC(c2ccc(F)cc2)C12CCN(C1(c3ccsc3)CCCCC1)CC2 (racemic) [Example 38, rac-4-(4-Fluoro-phenyl)-8-(1-thiophen-3-yl-cyclohexyl)-2,8-diaza-spiro[4.5]decan-1-one]
mGlyT-1b; GlyT-1 Enant. Mouse/human
  IC50: 99 nM and 213 nM
mGlyT-1b; GlyT-1 Racemat Mouse/human
  IC50: 99 nM

## O=C1NCC(c2ccc(F)cc2)C12CCN(C1(c3ccc(F)cc3)CCCCCC1)CC2 (racemic) [Example 50, rac4-(4-Fluoro-phenyl)-8-[1-(4-fluoro-phenyl)-cycloheptyl]-2,8-diaza-spiro[4.5]decan-1-one]
mGlyT-1b
  IC50: 81 nM
mGlyT-1b; second-listed enantiomer, mouse value (before the slash), read-out: GlyT-1 Enant. Mouse/human
  IC50: 153 nM
GlyT-1; racemate, human value (after the slash), read-out: GlyT-1 Racemat Mouse/human
  IC50: 132 nM

## Cc1ccc(C2CNC(=O)C23CCN(C2(c4ccc(F)cc4)CCCCC2)CC3)cc1 (racemic) [Example 52, rac 8-[1-(4-Fluoro-phenyl)-cyclohexyl]4-p-tolyl-2,8-diaza-spiro [4.5]decan-1-one]
GlyT-1; GlyT-1 Racemat Mouse/human
  IC50: 73 nM
